The nature of the data set: Solubility observed during synthesis and purification. Particulars: cause of yield and purification difficulties. Format: physicochemical.

As to `Cc1nc(N)sc1-c1csc(Nc2cc(N(C)C)ccc2Cl)n1` [compound 15, N^2-(2-chloro-5-(dimethylamino)phenyl)-4′-methyl-[4,5′-bithiazole]-2,2′-diamine], the solubility result is reported as “poor solubility”.

The record behind these values is PMC3274619 (Bioorganic & medicinal chemistry letters, 2012).
